Assay results reported in patent US20240228468A1, “N-(6-((OCTAHYDROCYCLOPENTA[C]PYRROL-5-YI)AMINO)PYRIDAZIN-3-YL)PHENYL)CARBOXAMIDE AND (6- ((OCTAHYDROCYCLOPENTA[C]PYRROL-5-YL)AMINO)PYRIDAZIN-3-YL)BENZAMIDE DERIVATIVES AS MACHR M4 ANTAGONISTS FOR THE TREATMENT OF NEURODEGENERATIVE DISORDERS” (Vanderbilt University, priority 2021, published 2024).
Where two headings read alike, the source gives them in different places.

Target: T1, Human M4 (Homo sapiens, UniProt P08173)
T1 construct: expressed in transfected cells; host or cells: CHO-K1 (ATCC), co-transfected with chimeric G protein Gqi5
T1 sequence (P08173 1-479): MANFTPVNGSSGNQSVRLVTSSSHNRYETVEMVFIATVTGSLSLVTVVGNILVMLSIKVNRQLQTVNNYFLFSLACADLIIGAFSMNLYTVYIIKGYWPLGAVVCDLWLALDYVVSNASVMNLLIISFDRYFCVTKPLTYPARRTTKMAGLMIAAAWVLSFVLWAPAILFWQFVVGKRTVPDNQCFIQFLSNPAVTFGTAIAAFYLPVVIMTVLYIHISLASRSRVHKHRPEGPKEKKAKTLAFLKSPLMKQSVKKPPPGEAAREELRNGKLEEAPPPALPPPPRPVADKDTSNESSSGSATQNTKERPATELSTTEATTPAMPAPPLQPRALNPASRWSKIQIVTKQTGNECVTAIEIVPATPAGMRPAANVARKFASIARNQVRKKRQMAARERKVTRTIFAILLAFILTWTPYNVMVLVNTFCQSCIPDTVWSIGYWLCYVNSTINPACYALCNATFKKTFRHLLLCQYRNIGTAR
Test: mAChR M4 cell-based functional assay (calcium flux, antagonism of EC80 acetylcholine response)
Details: for IC50: concentration-dependent decrease of the response elicited by an EC80 concentration of acetylcholine
Procedure, shortened: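 CHO-K1 cells stably expressing human M4 with chimeric Gqi5, Fluo-4 loaded; calcium flux read on FDSS. Compound (10-point, 1:3 series) added first, then EC20 acetylcholine at 143 s and EC80 at 268 s. IC50 from concentration-dependent decrease of EC80 response, four-parameter logistic fit.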

[1] = M4/Gqi5/CHO-K1 cells, % ACh maximum at 30 μM, read-out: Human M4 Emin (% ACh maximum at 30 μM)
[2] = CHO-K1, read-out: Human M4 Emin (% ACh maximum at 30 μM)

| remaining activity at 30 µM [1] [%] | IC50 (M4/Gqi5/CHO-K1 cells) [nM] | Compound | remaining activity at 30 µM [2] [%] |
| --- | --- | --- | --- |
| 4 | 2.7 | [2H]C([2H])(C1CCOC(C)(C)C1)N1C[C@H]2C[C@H](Nc3ccc(-c4cc(F)cc(C(=O)NC)c4)nn3)C[C@H]2C1 (stereo partly drawn) [Compound A83, 3-(6-(((3aR,5s,6aS)-2-((2,2-dimethyltetrahydro-2H-pyran-4-yl)methyl-d2)octahydrocyclopenta[c]pyrrol-5-yl)amino)pyridazin-3-yl)-5-fluoro-N-methylbenzamide] | – |
| 5 | 6.3 | [2H]C([2H])(C1CCOCC1)N1C[C@H]2C[C@H](Nc3ccc(-c4cc(F)c(C(N)=O)c(F)c4F)nn3)C[C@H]2C1 [Compound A65, 2,3,6-trifluoro-4-(6-(((3aR,5s,6aS)-2-((tetrahydro-2H-pyran-4-yl)methyl-d2)octahydrocyclopenta[c]pyrrol-5-yl)amino)pyridazin-3-yl)benzamide] | – |
| 16 | 4600 | CC(=O)Nc1ccc(-c2ccc(N[C@H]3C[C@@H]4CN(CC5(C)COC5)C[C@@H]4C3)nn2)cc1 [Compound A6, N-(4-(6-(((3aR,5s,6aS)-2-((3-methyloxetan-3-yl)methyl)octahydrocyclopenta[c]pyrrol-5-yl)amino)pyridazin-3-yl)phenyl)acetamide] | – |
| 4 | 16 | [2H]C([2H])(C1CCOCC1)N1C[C@H]2C[C@H](Nc3ccc(-c4cc(F)c(C(=O)NC)c(F)c4F)nn3)C[C@H]2C1 [Compound A66, 2,3,6-trifluoro-N-methyl-4-(6-(((3aR,5s,6aS)-2-((tetrahydro-2H-pyran-4-yl)methyl-d2)octahydrocyclopenta[c]pyrrol-5-yl)amino)pyridazin-3-yl)benzamide] | – |
| 4 | 2.7 | [2H]C([2H])([C@@H]1CCCCO1)N1C[C@H]2C[C@H](Nc3ccc(-c4cc(F)cc(C(=O)NC)c4)nn3)C[C@H]2C1 [Compound A86, 3-fluoro-N-methyl-5-(6-(((3aR,5s,6aS)-2-(((S)-tetrahydro-2H-pyran-2-yl)methyl-d2)octahydrocyclopenta[c]pyrrol-5-yl)amino)pyridazin-3-yl)benzamide] | – |
| 4 | 48 | CCN(CC)C(=O)c1ccc(-c2ccc(N[C@H]3C[C@@H]4CN(CC5CCOCC5)C[C@@H]4C3)nn2)c(F)c1 [Compound A38, N,N-diethyl-3-fluoro-4-(6-(((3aR,5s,6aS)-2-((tetrahydro-2H-pyran-4-yl)methyl)octahydrocyclopenta[c]pyrrol-5-yl)amino)pyridazin-3-yl)benzamide] | – |
| 4 | 21 | O=C(c1ccc(-c2ccc(N[C@H]3C[C@@H]4CN(CC5CCOCC5)C[C@@H]4C3)nn2)cc1)N1CCCCC1 [Compound A22, piperidin-1-yl(4-(6-(((3aR,5s,6aS)-2-((tetrahydro-2H-pyran-4-yl)methyl)octahydrocyclopenta[c]pyrrol-5-yl)amino)pyridazin-3-yl)phenyl)methanone] | – |
| 5 | 92 | [2H]C([2H])([C@@H]1CCCOC1)N1C[C@H]2C[C@H](Nc3ccc(-c4cccc(C(=O)NC)c4)nn3)C[C@H]2C1 [Compound A79, N-methyl-3-(6-(((3aR,5s,6aS)-2-(((S)-tetrahydro-2H-pyran-3-yl)methyl-d2)octahydrocyclopenta[c]pyrrol-5-yl)amino)pyridazin-3-yl)benzamide] | – |
| 3 | 16 | [2H]C([2H])(C1CCOCC1)N1C[C@H]2C[C@H](Nc3ccc(-c4cccc(NC(=O)C5CC5)c4)nn3)C[C@H]2C1 [Compound A32, N-(3-(6-(((3aR,5s,6aS)-2-((tetrahydro-2H-pyran-4-yl)methyl-d2)octahydrocyclopenta[c]pyrrol-5-yl)amino)pyridazin-3-yl)phenyl)cyclopropanecarboxamide] | – |
| 3 | 1.2 | CNC(=O)c1ccc(-c2ccc(N[C@H]3C[C@@H]4CN(CC5CCOCC5)C[C@@H]4C3)nn2)cc1 [Compound A63, N-methyl-4-(6-(((3aR,5s,6aS)-2-((tetrahydro-2H-pyran-4-yl)methyl)octahydrocyclopenta[c]pyrrol-5-yl)amino)pyridazin-3-yl)benzamide] | – |
| 3 | 13 | O=C(Nc1cccc(-c2ccc(N[C@H]3C[C@@H]4CN(CC5CCOCC5)C[C@@H]4C3)nn2)c1)C1CC1 [Compound A30, N-(3-(6-(((3aR,5s,6aS)-2-((tetrahydro-2H-pyran-4-yl)methyl)octahydrocyclopenta[c]pyrrol-5-yl)amino)pyridazin-3-yl)phenyl)cyclopropanecarboxamide] | – |
| 4 | 14 | [2H]C([2H])(C1CCOCC1)N1C[C@H]2C[C@H](Nc3ccc(-c4cc(F)cc(C(=O)NC)c4)nn3)C[C@H]2C1 [Compound A71, 3-Fluoro-N-methyl-5-(6-(((3aR,5s,6aS)-2-((tetrahydro-2H-pyran-4-yl)methyl-d2)octahydrocyclopenta[c]pyrrol-5-yl)amino)pyridazin-3-yl)benzamide] | – |
| 3 | 3.4 | [2H]C([2H])(C1CCOC(C)(C)C1)N1C[C@H]2C[C@H](Nc3ccc(-c4cccc(C(=O)NC)c4)nn3)C[C@H]2C1 (stereo partly drawn) [Compound A75, 3-(6-(((3aR,5s,6aS)-2-((2,2-dimethyltetrahydro-2H-pyran-4-yl)methyl-d2)octahydrocyclopenta[c]pyrrol-5-yl)amino)pyridazin-3-yl)-N-methylbenzamide] | – |
| 4 | 45 | [2H]C([2H])([C@H]1COCCO1)N1C[C@H]2C[C@H](Nc3ccc(-c4cccc(C(=O)NC)c4)nn3)C[C@H]2C1 [Compound A77, 3-(6-(((3aR,5s,6aS)-2-(((S)-1,4-dioxan-2-yl)methyl-d2)octahydrocyclopenta[c]pyrrol-5-yl)amino)pyridazin-3-yl)-N-methylbenzamide] | – |
| 3 | 66 | O=C(Nc1cc(F)c(F)c(-c2ccc(N[C@H]3C[C@@H]4CN(CC5CCOCC5)C[C@@H]4C3)nn2)c1)C1(C(F)(F)F)CC1 [Compound A11, N-(3,4-difluoro-5-(6-(((3aR,5s,6aS)-2-((tetrahydro-2H-pyran-4-yl)methyl)octahydrocyclopenta[c]pyrrol-5-yl)amino)pyridazin-3-yl)phenyl)-1-(trifluoromethyl)cyclopropane-1-carboxamide] | – |

| Compound | remaining activity at 30 µM [1] [%] | IC50 (M4/Gqi5/CHO-K1 cells) [nM] | remaining activity at 30 µM [2] [%] |
| --- | --- | --- | --- |
| [2H]C([2H])(C1CCOCC1)N1C[C@H]2C[C@H](Nc3ccc(-c4cc(F)c(C(=O)N(C)C)c(F)c4F)nn3)C[C@H]2C1 [Compound A67, 2,3,6-Trifluoro-N,N-dimethyl-4-(6-(((3aR,5s,6aS)-2-((tetrahydro-2H-pyran-4-yl)methyl-d2)octahydrocyclopenta[c]pyrrol-5-yl)amino)pyridazin-3-yl)benzamide] | – | 11 | 4 |
| O=C(Nc1cc(F)c(F)c(-c2ccc(N[C@H]3C[C@@H]4CN(CC5CCOCC5)C[C@@H]4C3)nn2)c1)C(F)F [Compound A15, N-(3,4-Difluoro-5-(6-(((3aR,5s,6aS)-2-((tetrahydro-2H-pyran-4-yl)methyl)octahydrocyclopenta[c]pyrrol-5-yl)amino)pyridazin-3-yl)phenyl)-2,2-difluoroacetamide] | – | 15 | 4 |
